Experimental data reported in PubChem BioAssay (NCI).
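Five compound concentrations were applied to cells in 96-well plates for 48 hours; endpoints were derived by simple linear interpolation of the resulting dose-response curve. Here, GI50 denotes the concentration required for 50% inhibition of growth. TGI denotes the concentration required for complete inhibition of growth.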

How the values were obtained:
Assay in all cases: inhibition of tumour cell growth, NCI panel, 48 h
ACHN renal = test system: ACHN renal
OVCAR-8 ovarian = test system: OVCAR-8 ovarian
TK-10 renal = test system: TK-10 renal
SR leukemia = test system: SR leukemia
MOLT-4 leukemia = test system: MOLT-4 leukemia
HS 578T breast = test system: HS 578T breast
M14 melanoma = test system: M14 melanoma
SNB-19 CNS = test system: SNB-19 CNS
HCT-15 colon = test system: HCT-15 colon
NCI-H226 lung = test system: NCI-H226 lung
T-47D breast = test system: T-47D breast
UACC-257 melanoma = test system: UACC-257 melanoma
OVCAR-4 ovarian = test system: OVCAR-4 ovarian
786-0 renal = test system: 786-0 renal
SW-620 colon = test system: SW-620 colon
NCI-H460 lung = test system: NCI-H460 lung
MDA-MB-435 = test system: MDA-MB-435
LOX IMVI melanoma = test system: LOX IMVI melanoma
K-562 leukemia = test system: K-562 leukemia
HT29 colon = test system: HT29 colon
KM12 colon = test system: KM12 colon
CAKI-1 renal = test system: CAKI-1 renal
OVCAR-5 ovarian = test system: OVCAR-5 ovarian
HOP-62 NSCLC = test system: HOP-62 NSCLC
CCRF-CEM leukemia = test system: CCRF-CEM leukemia
UACC-62 melanoma = test system: UACC-62 melanoma
IGROV1 ovarian = test system: IGROV1 ovarian
SNB-75 CNS = test system: SNB-75 CNS

For `COc1ccc(-c2cc(/C=C3\C(=O)Nc4ccc(OC)cc43)[nH]n2)cc1`, the GI50 (ACHN renal) was > 100 µM, the TGI (ACHN renal) was > 100 µM and the GI50 (OVCAR-8 ovarian) was 19.5 µM. The TGI (OVCAR-8 ovarian) was > 100 µM, the GI50 (TK-10 renal) was > 100 µM and the TGI (TK-10 renal) was > 100 µM. The GI50 (SR leukemia) was 595 nM, the TGI (SR leukemia) was > 100 µM and the GI50 (MOLT-4 leukemia) was > 100 µM. The TGI (MOLT-4 leukemia) was > 100 µM, the GI50 (HS 578T breast) was 16.8 µM and the TGI (HS 578T breast) was > 100 µM. For the same compound, the GI50 (M14 melanoma) was > 100 µM, the TGI (M14 melanoma) was > 100 µM and the GI50 (SNB-19 CNS) was 77.2 µM. The TGI (SNB-19 CNS) was > 100 µM, the GI50 (HCT-15 colon) was 687 nM and the TGI (HCT-15 colon) was > 100 µM. The GI50 (NCI-H226 lung) was > 100 µM, the TGI (NCI-H226 lung) was > 100 µM and the GI50 (T-47D breast) was > 100 µM. The TGI (T-47D breast) was > 100 µM, the GI50 (UACC-257 melanoma) was > 100 µM and the TGI (UACC-257 melanoma) was > 100 µM. For the same compound, the GI50 (OVCAR-4 ovarian) was > 100 µM, the TGI (OVCAR-4 ovarian) was > 100 µM and the GI50 (786-0 renal) was > 100 µM. The TGI (786-0 renal) was > 100 µM, the GI50 (SW-620 colon) was 912 nM and the TGI (SW-620 colon) was > 100 µM. For the same compound, the GI50 (NCI-H460 lung) was 5.45 µM, the TGI (NCI-H460 lung) was > 100 µM and the GI50 (MDA-MB-435) was 317 nM. The TGI (MDA-MB-435) was 26.1 µM, the GI50 (LOX IMVI melanoma) was 14 µM and the TGI (LOX IMVI melanoma) was > 100 µM. For the same compound, the GI50 (K-562 leukemia) was 479 nM, the TGI (K-562 leukemia) was > 100 µM and the GI50 (HT29 colon) was 1580 nM. For the same compound, the TGI (HT29 colon) was > 100 µM, the GI50 (KM12 colon) was 1620 nM and the TGI (KM12 colon) was > 100 µM. The GI50 (CAKI-1 renal) was > 100 µM, the TGI (CAKI-1 renal) was > 100 µM and the GI50 (OVCAR-5 ovarian) was > 100 µM. The TGI (OVCAR-5 ovarian) was > 100 µM, the GI50 (HOP-62 NSCLC) was 10.6 µM and the TGI (HOP-62 NSCLC) was > 100 µM. For the same compound, the GI50 (CCRF-CEM leukemia) was > 100 µM, the TGI (CCRF-CEM leukemia) was > 100 µM and the GI50 (UACC-62 melanoma) was 6.43 µM. The TGI (UACC-62 melanoma) was > 100 µM, the GI50 (IGROV1 ovarian) was > 100 µM and the TGI (IGROV1 ovarian) was > 100 µM. For the same compound, the GI50 (SNB-75 CNS) was 3.19 µM and the TGI (SNB-75 CNS) was 25.5 µM.
